# Tested on: C57BL/6J ob/ob mice
# Assay: Anti-diabetic activity in the C57BL/6j ob/ob mice model (plasma glucose lowering, insulin level)
# Format: in vivo
# Settings: male C57BL/6J ob/ob mice, orally by gavage once a day for 1-4 days; for Insulin Level compared with vehicle: drug-treated vs vehicle-treated; for minimal effective dose: Mus musculus, po, glucose lowering, plasma glucose 6 hours after each dose, read-out: Potency
# Procedure: The anti-diabetic activities of the compounds were evaluated in the C57BL/6j ob/ob Mice model. Male, 7-9 weeks old, C57BL/6J ob/ob mice were purchased from The Jackson Laboratory (Bar Harbor, Me., USA). Animals were housed (4-5 mice/cage) under standard laboratory conditions at 22±3° C. temperature and 50±20% relative humidity, and were maintained on a diet of Purina rodent chow and water ad libitum. Prior to treatment, blood was collected from the tail vein of each animal. Mice that had non-fasting plasma glucose levels between 250 and 500 mg/dl were used. Each treatment group consisted of 8-10 mice that were distributed so that the mean glucose levels were equivalent in each group at the start of the study. Mice were dosed orally by gavage once a day for 1-4 days with vehicle and one or more dose of test compound at a dose ranging from 5 to 125 mg/kg. Compounds were delivered in a liquid formulation containing 5% (v/v) dimethyl sulfoxide (DMSO), 1% (v/v) Tween 80® and 0.9% (w/v) methylcellulose. The gavage volume was 10 ml/kg. Blood samples were taken at 6 hours after the each dose and analyzed for plasma glucose. Food intake and body weight were measured daily. Plasma glucose concentrations were determined calorimetrically using a commercial glucose oxidase method (Sigma Chemical Co, St. Louis, Mo., USA). Significant difference between groups (comparing drug-treated to vehicle-treated) was evaluated using the Student unpaired t-test. Table 1 provides the relative potency of some selected compounds of the invention.
smiles,measurement,value
"O=C(O)C(Oc1ccc(C(F)(F)F)cc1)c1cccc(C(F)(F)F)c1 (single isomer, unassigned; (+)) [(+)-39, (4-trifluoromethyl-phenoxy)-(3-trifluoromethyl-phenyl)-acetic acid]",Insulin Level compared with vehicle,Lower
"O=C(O)C(Oc1ccc(C(F)(F)F)cc1)c1cccc(C(F)(F)F)c1 (single isomer, unassigned; (-)) [(−)-39, (4-trifluoromethyl-phenoxy)-(3-trifluoromethyl-phenyl)-acetic acid]",Insulin Level compared with vehicle,Lower
"O=C(O)C(Oc1ccc(C(F)(F)F)cc1)c1cccc(C(F)(F)F)c1 (centres unmarked) [Compound 39, (4-Trifluoromethyl-phenoxy)-(3-trifluoromethyl-phenyl)-acetic acid]",Insulin Level compared with vehicle,Lower
O=C(O)C(Oc1cc(C(F)(F)F)cc(C(F)(F)F)c1)c1ccc(C(F)(F)F)cc1 (centres unmarked) [Compound 81],minimal effective dose,≤ 125 mg/kg
same,Insulin Level compared with vehicle,Lower
"O=C(O)C(Oc1ccc(C(F)(F)F)cc1)c1ccc(C(F)(F)F)cc1 (centres unmarked) [Compound 83, (4-Trifluoromethyl-phenoxy)-(4-trifluoromethyl-phenyl)-acetic acid]",minimal effective dose,≤ 125 mg/kg
same,Insulin Level compared with vehicle,Lower
"O=C(O)C(Oc1ccc(C(F)(F)F)cc1Cl)c1cccc(C(F)(F)F)c1 (centres unmarked) [Compound 85, (2-Chloro-4-trifluoromethyl-phenoxy)-(3-trifluoromethyl-phenyl)-acetic acid]",minimal effective dose,≤ 125 mg/kg
same,Insulin Level compared with vehicle,Lower
"O=C(O)C(Oc1cccc(C(F)(F)F)c1)c1ccc(C(F)(F)F)cc1 (centres unmarked) [Compound 86, (3-trifluoromethyl-phenoxy)-(4-trifluoromethyl-phenyl)-acetic acid]",minimal effective dose,≤ 125 mg/kg
same,Insulin Level compared with vehicle,Lower
"O=C(O)C(Oc1ccc(C(F)(F)F)cc1Cl)c1ccc(C(F)(F)F)cc1 (centres unmarked) [Compound 89, (2-Chloro-4-trifluoromethyl-phenoxy)-(4-trifluoromethyl-phenyl)-acetic acid]",minimal effective dose,≤ 125 mg/kg
same,Insulin Level compared with vehicle,Lower
"O=C(O)C(Oc1ccc(C(F)(F)F)cn1)c1cccc(C(F)(F)F)c1 (centres unmarked) [Compound 100, (3-trifluoromethyl-phenyl)-(5-trifluoromethyl-pyridin-2-yloxy)-acetic acid]",minimal effective dose,≤ 125 mg/kg
same,Insulin Level compared with vehicle,Lower
"CC(Oc1ccc(C(F)(F)F)cc1)(C(=O)O)c1cccc(C(F)(F)F)c1 (centres unmarked) [Compound 120, 2-(4-trifluoromethyl-phenoxy)-2-(3-trifluoromethyl-phenyl)-propionic acid]",minimal effective dose,≤ 125 mg/kg
same,Insulin Level compared with vehicle,Lower
"CC(Oc1ccc(C(F)(F)F)cc1)(C(=O)O)c1ccc(C(F)(F)F)cc1 (centres unmarked) [Compound 121, 2-(4-Trifluoromethyl-phenoxy)-2-(4-trifluoromethyl-phenyl)-propionic acid]",minimal effective dose,≤ 125 mg/kg
same,Insulin Level compared with vehicle,Lower
OCC(Oc1ccc(C(F)(F)F)cc1Cl)c1ccc(C(F)(F)F)cc1 (centres unmarked) [Compound 128],minimal effective dose,≤ 125 mg/kg
same,Insulin Level compared with vehicle,Lower
"CC(=O)NCCOC(=O)C(Oc1ccc(C(F)(F)F)cc1)c1cccc(C(F)(F)F)c1 (centres unmarked) [Compound 136, (4-trifluoromethyl-phenoxy)-(3-trifluoromethyl-phenyl)-acetic acid 2-acetylamino-ethyl ester]",minimal effective dose,≤ 125 mg/kg
same,Insulin Level compared with vehicle,Lower
CC(=O)NCCOC(=O)C(Oc1cccc(C(F)(F)F)c1)c1ccc(C(F)(F)F)cc1 (centres unmarked) [Compound 142],minimal effective dose,≤ 125 mg/kg
same,Insulin Level compared with vehicle,Lower
CC(=O)NCCOC(=O)C(Oc1cc(C(F)(F)F)cc(C(F)(F)F)c1)c1ccc(C(F)(F)F)cc1 (centres unmarked) [Compound 143],minimal effective dose,≤ 125 mg/kg
same,Insulin Level compared with vehicle,Lower
CC(=O)NCCOC(=O)C(Oc1cccc(C(F)(F)F)c1)c1cccc(C(F)(F)F)c1 (centres unmarked) [Compound 144],minimal effective dose,≤ 125 mg/kg
same,Insulin Level compared with vehicle,Lower
CC(=O)NCCOC(=O)C(Oc1ccc(C(F)(F)F)cc1)c1ccc(C(F)(F)F)cc1 (centres unmarked) [Compound 145],minimal effective dose,≤ 125 mg/kg
same,Insulin Level compared with vehicle,Lower
CC(=O)NCCOC(=O)C(Oc1ccccc1C(F)(F)F)c1ccc(C(F)(F)F)cc1 (centres unmarked) [Compound 146],minimal effective dose,> 125 mg/kg
same,Insulin Level compared with vehicle,Lower
CC(=O)NCCOC(=O)C(Oc1cccc(C(F)(F)F)c1)c1ccccc1C(F)(F)F (centres unmarked) [Compound 147],minimal effective dose,> 125 mg/kg
same,Insulin Level compared with vehicle,Lower

# Reference: US7371888B2, “α-(Trifluoromethyl-substituted aryloxy, arylamino, arylthio or arylmethyl)-trifluoromethyl-substituted phenylacetic acids and derivatives as antidiabetic agents” (Metabolex, Inc., priority 2004, dated 2008)
